Counter-ions that a name gives are not always drawn.
Tests used:
[1] = tested on: rat embryonic cortical neurons; assay: Aβ production in rat primary embryonic cortical neuronal cultures; assay type: cell-based; settings: for production of Aβ peptides: normal rat primary neuronal cell cultures; for concentration at which significant reductions in Aβ were observed: primary cortical neuronal cultures, dose response, FIGS. 13 and 14
Text: Cultures of rat embryonic cortical neurons were established from day 18 pregnant SD rats using standard techniques (Gasparini et al., 2001, J. Neurosci. 21(8):2561-2570).
The next day, cells were labeled with ^35S-methionine and cysteine for four hours in the presence of compounds as above. Media and cells were then harvested and subjected to immunoprecipitation with antibody 4G8, to detect Aβ and APP. The media was serially immunoprecipitated first with antibody 4G8 and then antibody 22C11, for detection of secreted Aβ, sAPPP and sAPPα. Immunoprecipitates were subjected to PAGE and resolved by autoradiography; APP metabolites were compared by densitometry.

[2] = tested on: N2a cells transfected with the human Swedish APP mutation; assay: Aβ generation in N2a cells transfected with human Swedish APP and normal or ΔE9 presenilin 1 (immunoprecipitation, autoradiography, Western blot); assay type: cell-based, mouse; settings: for Aβ after one hour of treatment: 35S labeled N2a cells expressing human APP-Swedish
Method: N2a cells transfected with the human Swedish APP mutation, and with either normal human presenilin 1 or ΔE9 mutant presenilin 1 (PS1), were used for assays of compound effect on Aβ generation.
Media was added with compound concentration of 0, 10^−9, 10^−8, 10^−7 and 10^−6 M; cells were incubated overnight at 37° C. The next day, cells were incubated with ^35S-methionine and ^35S-cysteine for four hours in the presence of the compound as above.
Media and cells were separately harvested and subjected to immunoprecipitation with antibody 4G8 (Senetek, Napa, Calif.), which recognizes an epitope corresponding to residues 17-28 of Aβ. Antibody 4G8 immunoprecipitates Aβ from media, and Aβ plus full-length APP from cells. After removal of antibody 4G8 and bound Aβ from media, the supernatant was reacted with 22C11 (Chemicon International), an antibody that immunoprecipitates sAPPβ and sAPPα. Immunoprecipitates were subjected to PAGE and resolved by autoradiography according to standard methods. APP metabolites were compared by densitometry according to standard methods.
In other experiments, immunoprecipitation followed by Western blot analysis was carried out on unlabeled (no radioactive label) N2a cells, using standard methods and using 6E10 (Senetek, Napa, Calif.) or 22C11 antibodies for detection.
These immunoprecipitation experiments were repeated using a minimal treatment time, 1 hour instead of overnight.

γ-secretase = assay: Isolated γ-secretase activity: Aβ release (ELISA) from membranes of N2a cells expressing recombinant C99; assay type: biochemical, mouse; settings: membranes from N2a cells expressing C99, with ATP; FIG. 4
Method: For the assay of isolated γ-secretase activity, membranes were isolated from N2a cells expressing a recombinant γ-secretase substrate, C99, according to the methods of Zhang et al. (2001, Biochemistry 40: 5049-5055). […] Also, to determine whether ATP was primarily responsible for stimulating γ-secretase activity, the previous energy regenerating system was substituted with one designed to sustain concentrations of ATP alone but not GTP. Aβ release from isolated membranes was determined by ELISA (Biosource International, Camarillo, Calif.).

[3] = tested on: rat embryonic cortical neurons; assay: Aβ production in rat primary embryonic cortical neuronal cultures; assay type: cell-based
mΔe-Notch = assay: Notch cleavage in N2a cells transfected with mΔe-Notch; assay type: cell-based, mouse; settings: at levels that strongly inhibit Aβ-formation; FIGS. 17 and 18
Text: N2a cells were transfected with a constitutively active truncated form of Notch, mouse “deleted-extracellular” Notch (mΔe-Notch), which supplies a direct substrate for γ-secretase (De Strooper et al., 1999, Nature 398: 518-522).

[4] = tested on: wild-type 3T3 mouse fibroblasts; assay: Aβ production in wild-type 3T3 mouse fibroblasts; assay type: cell-based; settings: 5 μM or 10 μM STI-571; 0.5 μM or 1.0 μM Compound 1; similar degree as in Abl−/− and N2a cells
Method: (§1) Abl knockout (Abl−/−) 3T3 mouse fibroblasts and wild-type 3T3 mouse fibroblasts (see Liu et al., 1996, Nature 384(6606):273-6) were grown separately and to confluence in 100 mm Corning tissue culture plates. These fibroblast cell lines are permanent cell lines. […] Several other plates were exposed to either 0.5 μM or 1.0 μM Compound 1 (dissolved in DMSO) or to DMSO without Compound 1.
(§2) For the above-described cell cultures, each of the drugs or control solvents was added to a standard culture medium (DMEM+10% FBS+pen/strep) at a dilution of 1:1000 and cultures were then incubated at 37° C. for 2 hours. The contacting of cell cultures and incubation with inhibitors and solvent, as described above, constituted “pretreatment” of cells.
(§3) The first culture medium was then removed and the cell cultures were rinsed with a second culture medium lacking methionine, cysteine and glutamate. The cell cultures were incubated with this culture medium for 30 minutes (to stimulate subsequent uptake of amino acids). Then the second culture medium was exchanged for fresh first culture medium containing ^35S-labeled methionine and cysteine (NEN Express label 50 μl/ml) and unlabeled glutamine (final concentration 2 mM) and with inhibitors as described above, and incubated for 4 hours at 37° C. […]

brain Aβ40, Aβ42 and C99 = assay: Brain Aβ and C99 in wild-type guinea pigs after intrathecal osmotic minipump treatment; assay type: in vivo, guinea pig; settings: 2.8 mg/kg, 7 days
Method: After 7 days of treatment, animals were sacrificed, and their brains homogenized in 25 mM Tris 7.5, 50 mM NaCl, 1 mM DTT, 5 mM EDTA, 1 mM EGTA, and 1× protease inhibitor cocktail (Complete™, Boehringer Biochemicals). Aliquots of brain homogenate were assayed for Aβ peptide by using a sandwich ELISA according the manufacturer's recommendations (Biosource International, Camarillo, Calif.) and for C99 by immunoprecipitation and Western blot analysis using standard methods.

[5] = tested on: Abl knockout (Abl−/−) 3T3 mouse fibroblasts; assay: Aβ production in Abl knockout (Abl−/−) 3T3 mouse fibroblasts; assay type: cell-based; settings: 5 μM or 10 μM STI-571; 0.5 μM or 1.0 μM Compound 1; similar degree as in wild-type and N2a cells
Method: as §1, §2, §3

[6] = tested on: N2a cells expressing Swedish variant of human APP and the PS1 mutation; assay: Mass spectrometry (Ciphergen ProteinChip, SELDI-TOF) of Aβ40 and Aβ42 in media from N2a cells; assay type: cell-based, mouse; settings: FIG. 5
Method: Mass spectrometry was carried out on media from N2a cells to detect Aβ40 and Aβ42 peptides using the CiphergenProteinChip System (Ciphergen Biosystems Inc., Fremont, Calif.), which is based on Seldi and time-of-flight mass spectrometry, using standard protocols as set out by the manufacturer. The experimental procedures were the same as those disclosed above for immunoprecipitation/Western blotting, without metabolic labeling. […] Aliquots of detergent treated media were contacted to a metal chip that was previously contacted with an antibody, such as 6E10. The antibody binds human APP metabolites, including Aβ, in the applied sample. Detection of bound antigen followed a laser pulse that dissociated antigen from antibody.
Aβ peptides were resolved graphically as peaks of various heights, situated on an x-axis denoting molecular mass. Thus, Aβ40 and Aβ42 were resolved separately at approximately 4333 and 4519 daltons, respectively. The relative heights or areas under the peaks in a given spectrum denoted the relative concentrations of the detected species. Peaks corresponding to the same species, as conveyed by molecular mass, were compared among different spectra, reflecting different samples, to measure relative quantities of Aβ among a set of samples.

SMILES | production of Aβ peptides [1] | concentration at which significant reductions in Aβ were observed [1] [µM] | secretion of soluble APP-α ([1]; primary neuronal cells cultured from rat brain, FIG. 9) | levels of Aβ in cells ([1]; rat cortical neurons) | levels of Aβ in media ([1]; rat cortical neurons, FIG. 8A, FIG. 10) | total cellular APP ([1]; rat cortical neurons, FIG. 9) | total sAPP ([1]; rat cortical neurons, FIG. 9) | Aβ after one hour of treatment ([2]; FIGS. 6 and 7) | IC50 ([2]; N2a cells expressing APP and either normal human presenilin 1 or ΔE9 mutant presenilin 1, read-out: IC50 (inhibited total levels of Aβ by 50%)) [µM] | Aβ generation in isolated membranes (γ-secretase) | cytotoxicity [3] | cleavage of mΔe-Notch to form Notch intracellular domain (NICD) (mΔe-Notch) | Aβ production [4] | appearance of animals (brain Aβ40, Aβ42 and C99) | full-length βAPP levels (brain Aβ40, Aβ42 and C99; FIG. 16C) | Aβ production [5] | Aβ40 level [6] | Aβ42 level [6] | APP levels ([2]; intact N2a cells expressing Swedish variant of human APP, FIGS. 6 and 7)
CSc1cccc(Nc2ncc3cc(-c4c(Cl)cccc4Cl)c(=O)n(C)c3n2)c1 [Compound 1] | inhibit | 0.5 | consistent secretion | reduced | reduced | not reduced significantly | not reduced significantly | dose-dependent decrease | < 1 | dose-dependent decrease | not cytotoxic | unaffected | inhibited | healthy and active | do not change | inhibited | dramatically reduced | dramatically reduced | 
Cc1ccc(NC(=O)c2ccc(CN3CCN(C)CC3)cc2)cc1Nc1nccc(-c2cccnc2)n1 [STI-571, imatinib mesylate, reference compound] | inhibit | 5 |  |  |  |  |  | dose-dependent decrease |  |  |  |  | inhibited |  |  | inhibited |  |  | do not change
